From ChEMBL document CHEMBL6103603, “Novel Imidazo[4,5-c]pyridine Compounds as TLR7 Agonists for Treating Cancer” (ACS Med Chem Lett, 2025)

Target: T1, Toll-like receptor 7 (Homo sapiens, UniProt Q9NYK1)
T1 sequence (Q9NYK1 whole entry): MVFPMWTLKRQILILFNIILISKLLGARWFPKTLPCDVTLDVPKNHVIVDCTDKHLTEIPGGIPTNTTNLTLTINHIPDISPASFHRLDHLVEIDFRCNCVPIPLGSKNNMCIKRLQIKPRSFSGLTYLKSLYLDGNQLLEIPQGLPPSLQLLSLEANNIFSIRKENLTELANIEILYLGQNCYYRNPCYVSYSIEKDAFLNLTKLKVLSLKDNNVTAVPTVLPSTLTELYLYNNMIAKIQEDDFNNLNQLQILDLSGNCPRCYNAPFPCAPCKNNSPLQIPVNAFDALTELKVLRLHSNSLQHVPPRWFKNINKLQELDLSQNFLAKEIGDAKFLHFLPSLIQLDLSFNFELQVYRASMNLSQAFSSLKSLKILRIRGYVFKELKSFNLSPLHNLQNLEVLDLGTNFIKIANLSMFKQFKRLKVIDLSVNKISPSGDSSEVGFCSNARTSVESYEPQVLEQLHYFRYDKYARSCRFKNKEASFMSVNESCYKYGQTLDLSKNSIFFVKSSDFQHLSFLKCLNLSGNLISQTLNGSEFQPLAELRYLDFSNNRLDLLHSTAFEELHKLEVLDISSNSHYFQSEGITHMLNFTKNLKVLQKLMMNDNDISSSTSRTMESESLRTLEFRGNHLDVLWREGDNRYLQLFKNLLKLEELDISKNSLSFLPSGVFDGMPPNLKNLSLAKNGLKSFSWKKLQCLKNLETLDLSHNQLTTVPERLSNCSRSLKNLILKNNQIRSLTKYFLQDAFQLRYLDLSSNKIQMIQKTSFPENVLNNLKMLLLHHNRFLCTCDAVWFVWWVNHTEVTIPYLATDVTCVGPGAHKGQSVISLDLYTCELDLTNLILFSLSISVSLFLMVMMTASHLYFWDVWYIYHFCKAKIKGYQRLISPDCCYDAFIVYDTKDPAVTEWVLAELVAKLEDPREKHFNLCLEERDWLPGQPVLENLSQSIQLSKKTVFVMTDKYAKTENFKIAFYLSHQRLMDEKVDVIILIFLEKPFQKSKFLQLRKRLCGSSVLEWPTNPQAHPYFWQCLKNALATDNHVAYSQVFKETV
Assay: Agonist activity at TLR7 in HEK-Blue hTLR7 cells expressing NF-kappaB/AP-1 inducible SEAP reporter gene using Quanti-blue as substrate preincubated for 20 hrs followed by substrate addition and measured after 1 hr by spectrophotometric analysis
Type: cell-based

With `CCOCc1nc2c(N)nc(C)c(Sc3ccc(CN(C)C)c(O)c3)c2[nH]1` the EC50 was 10 nM.
